Laboratory results published in ChEMBL document CHEMBL1201862, “PubChem BioAssay data set” (2004).
Calls of active or inactive are those of the source.

Tests used:
[1] = biological target: T1, Adenosylmethionine-8-amino-7-oxononanoate aminotransferase (Mycobacterium tuberculosis, UniProt P9WQ81); experiment: Mycobacterium tuberculosis BioA enzyme inhibitor Measured in Biochemical System Using Plate Reader - 2163-02_Inhibitor_Dose_CherryPick_Activity.; type: functional, Mycobacterium tuberculosis UT205
T1 sequence (P9WQ81 whole entry): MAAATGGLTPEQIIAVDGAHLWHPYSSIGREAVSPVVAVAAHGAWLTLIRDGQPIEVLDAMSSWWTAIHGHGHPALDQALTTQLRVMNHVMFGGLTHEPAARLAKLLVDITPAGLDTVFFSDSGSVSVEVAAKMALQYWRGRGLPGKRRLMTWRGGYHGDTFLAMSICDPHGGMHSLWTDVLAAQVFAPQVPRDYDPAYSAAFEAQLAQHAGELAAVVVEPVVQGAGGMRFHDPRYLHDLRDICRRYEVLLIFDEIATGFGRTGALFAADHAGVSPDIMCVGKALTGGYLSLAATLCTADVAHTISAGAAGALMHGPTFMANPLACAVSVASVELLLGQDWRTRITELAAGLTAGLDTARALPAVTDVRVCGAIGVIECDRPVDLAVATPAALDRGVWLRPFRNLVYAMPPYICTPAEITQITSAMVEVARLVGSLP

[2] = biological target: T2, Cytochrome P450 1A2 (Homo sapiens, UniProt P05177);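 also: PubChem cytochrome P450 panel assay, CYP1A2 panel member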
T2 sequence (P05177 whole entry): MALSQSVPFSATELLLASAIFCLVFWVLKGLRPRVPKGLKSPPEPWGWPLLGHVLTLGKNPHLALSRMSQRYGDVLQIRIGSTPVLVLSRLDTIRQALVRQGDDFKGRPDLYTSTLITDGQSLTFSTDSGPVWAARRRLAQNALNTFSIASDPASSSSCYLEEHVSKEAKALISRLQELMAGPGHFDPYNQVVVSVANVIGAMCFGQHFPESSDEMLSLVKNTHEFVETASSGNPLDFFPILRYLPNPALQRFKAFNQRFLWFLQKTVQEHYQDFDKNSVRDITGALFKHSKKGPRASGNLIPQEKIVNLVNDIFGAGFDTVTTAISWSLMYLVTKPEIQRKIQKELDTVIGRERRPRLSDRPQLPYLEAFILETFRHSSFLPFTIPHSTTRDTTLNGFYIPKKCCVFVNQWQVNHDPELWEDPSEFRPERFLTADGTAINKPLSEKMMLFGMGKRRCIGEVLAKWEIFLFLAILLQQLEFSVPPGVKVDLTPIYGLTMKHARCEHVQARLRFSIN

[3] = biological target: Large T antigen (Simian virus 40, UniProt P03070); type: functional, Betapolyomavirus macacae;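 also: Confirmatory-stage PubChem screen for compounds that inhibit SV40 T antigen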
[4] = biological target: T3, Low molecular weight phosphotyrosine protein phosphatase (Homo sapiens, UniProt P24666); type: functional; details: read-out: IC50_Mean;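 also: Dose-response confirmation assay measuring inhibition of LMPTP enzyme activity by fluorescence intensity read-out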
T3 sequence (P24666 whole entry): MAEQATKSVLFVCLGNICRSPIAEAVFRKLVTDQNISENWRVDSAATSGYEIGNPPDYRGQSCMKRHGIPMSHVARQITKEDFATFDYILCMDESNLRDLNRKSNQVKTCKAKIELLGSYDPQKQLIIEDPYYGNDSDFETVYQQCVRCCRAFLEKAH

[5] = biological target: Genome polyprotein (dengue virus type 2, UniProt P29990); experiment: flavivirus cap methylation enzyme inhibition – biochemical, confirmation dose response, primary screen (AID 588689); type: functional
[6] = biological target: T4, Long-chain-fatty-acid--AMP ligase FadD28 (Mycobacterium tuberculosis, UniProt P9WQ59); experiment: Fluorescence polarization aasay to screen for inhibitors that compete for the binding of FadD28 to a bisubstrate Measured in Biochemical System Using Plate Reader - 2147-01_Inhibitor_Dose_CherryPick_Activity.; type: functional, Mycobacterium tuberculosis H37Rv
T4 sequence (P9WQ59 whole entry): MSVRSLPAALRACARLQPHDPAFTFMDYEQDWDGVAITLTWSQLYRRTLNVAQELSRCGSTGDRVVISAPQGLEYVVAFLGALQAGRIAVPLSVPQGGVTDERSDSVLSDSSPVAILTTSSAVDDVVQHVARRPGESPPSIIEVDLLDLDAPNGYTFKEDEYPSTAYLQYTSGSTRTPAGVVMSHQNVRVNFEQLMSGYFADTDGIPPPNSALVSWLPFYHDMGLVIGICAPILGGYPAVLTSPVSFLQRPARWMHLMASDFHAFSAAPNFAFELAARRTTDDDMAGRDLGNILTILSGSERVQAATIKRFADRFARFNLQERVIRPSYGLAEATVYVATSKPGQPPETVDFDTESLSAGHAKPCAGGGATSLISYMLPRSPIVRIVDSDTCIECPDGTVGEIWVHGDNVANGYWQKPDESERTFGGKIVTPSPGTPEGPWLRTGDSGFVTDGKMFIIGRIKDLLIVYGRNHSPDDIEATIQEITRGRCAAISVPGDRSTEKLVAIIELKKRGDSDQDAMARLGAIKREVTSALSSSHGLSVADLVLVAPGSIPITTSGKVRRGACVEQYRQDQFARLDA

Chain of Genome polyprotein (P29990 2492-3391 limits assumed): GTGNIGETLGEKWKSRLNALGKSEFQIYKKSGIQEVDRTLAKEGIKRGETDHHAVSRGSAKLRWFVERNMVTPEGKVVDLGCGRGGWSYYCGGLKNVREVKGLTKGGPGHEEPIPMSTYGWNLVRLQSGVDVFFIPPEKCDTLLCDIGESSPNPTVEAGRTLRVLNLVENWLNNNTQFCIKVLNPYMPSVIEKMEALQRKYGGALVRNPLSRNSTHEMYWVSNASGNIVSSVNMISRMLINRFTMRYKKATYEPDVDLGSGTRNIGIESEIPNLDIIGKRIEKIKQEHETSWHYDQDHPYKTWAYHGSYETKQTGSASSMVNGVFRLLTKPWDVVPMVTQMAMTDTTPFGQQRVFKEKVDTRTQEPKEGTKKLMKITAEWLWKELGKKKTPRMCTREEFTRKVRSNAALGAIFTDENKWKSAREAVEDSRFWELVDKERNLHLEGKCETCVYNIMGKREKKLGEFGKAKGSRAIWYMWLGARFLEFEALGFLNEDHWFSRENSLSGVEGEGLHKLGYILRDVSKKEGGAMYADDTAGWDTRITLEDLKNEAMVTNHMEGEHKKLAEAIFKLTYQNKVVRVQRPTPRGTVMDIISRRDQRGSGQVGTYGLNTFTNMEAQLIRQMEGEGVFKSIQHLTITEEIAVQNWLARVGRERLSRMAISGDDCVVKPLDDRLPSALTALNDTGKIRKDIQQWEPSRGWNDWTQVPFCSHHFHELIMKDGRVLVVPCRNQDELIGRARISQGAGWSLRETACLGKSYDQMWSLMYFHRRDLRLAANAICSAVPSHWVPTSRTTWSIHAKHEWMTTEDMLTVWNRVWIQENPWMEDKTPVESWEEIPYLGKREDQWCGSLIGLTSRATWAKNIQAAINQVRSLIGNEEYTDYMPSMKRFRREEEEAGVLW
Chain of Large T antigen (P03070 whole entry): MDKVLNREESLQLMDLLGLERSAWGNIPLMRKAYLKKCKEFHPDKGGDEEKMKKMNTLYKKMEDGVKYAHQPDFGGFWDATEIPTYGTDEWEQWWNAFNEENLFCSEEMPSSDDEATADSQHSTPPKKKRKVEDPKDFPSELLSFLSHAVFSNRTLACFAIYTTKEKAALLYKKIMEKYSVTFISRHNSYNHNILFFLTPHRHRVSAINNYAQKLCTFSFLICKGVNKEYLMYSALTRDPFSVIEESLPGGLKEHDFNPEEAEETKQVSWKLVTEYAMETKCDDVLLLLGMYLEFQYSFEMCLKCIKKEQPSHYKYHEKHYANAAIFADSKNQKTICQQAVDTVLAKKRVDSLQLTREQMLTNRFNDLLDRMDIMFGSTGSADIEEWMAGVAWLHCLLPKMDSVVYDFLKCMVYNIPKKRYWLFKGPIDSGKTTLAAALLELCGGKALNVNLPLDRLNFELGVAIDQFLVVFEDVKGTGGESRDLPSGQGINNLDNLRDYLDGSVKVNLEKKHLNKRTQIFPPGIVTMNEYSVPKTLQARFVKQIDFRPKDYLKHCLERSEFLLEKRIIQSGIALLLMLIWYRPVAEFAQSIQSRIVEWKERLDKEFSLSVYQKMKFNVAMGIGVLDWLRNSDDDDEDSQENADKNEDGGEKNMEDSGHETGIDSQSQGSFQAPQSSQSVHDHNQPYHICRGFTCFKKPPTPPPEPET

Which results are given for `CCCc1c(OCCCOc2ccc(OCC(=O)O)cc2)ccc(C(C)=O)c1O`?
AC50 [1]: 2.54 µM (active); AC50 [2]: 31.6 µM (inconclusive)

What does the source list for `Nc1ccc2[nH]c(CCCCCCc3nc4cc(N)ccc4[nH]3)nc2c1`?
IC50 [3]: 5.49 µM (active); IC50 [4]: 20.8 µM (inactive)

Which AC50 [1] does the source give for `O=C(CSc1nc2c(c(=O)n1-c1ccccc1)SCC2)N1CCOCC1` here?
The AC50 was 2.62 µM (active).

How did the IC50 [5] turn out when `Cc1ccc(S(=O)(=O)N2[C@@H](c3cccc(Cl)c3)C(C(=O)O)=CC[C@H]2c2cccc(Cl)c2)cc1` was run?
The IC50 was 48.3 µM (active).

And the AC50 [6]?
Its AC50 is 24.9 µM (active).

Which AC50 [1] does the source give for `Cc1ccccc1S(=O)(=O)NCC[C@H]1CC[C@@H](NC(=O)Nc2cccc(F)c2)[C@H](CO)O1` here?
The AC50 was 11.3 µM (active).

With `CN1c2ccc(-c3cccc(C#N)c3)cc2[C@H]2[C@H](CCN2C(=O)CC2CC2)[C@H]1CO` as the molecule, how does the AC50 [1] read?
The AC50 was 3.56 µM (active).
